According to ChEMBL document CHEMBL1201862, “PubChem BioAssay data set” (2004):
Activity calls are given as the source filed them.

Experiments:
Trypsin = Trypsin (Sus scrofa, UniProt P00761); experiment: porcine trypsin inhibitors, dose response, selectivity assay for Rce1 protease inhibitor project, biochemical, quenched peptide fluorescence, cherry-pick (AID 488789)
HEK293 [1] = experiment: NOD2 signaling inhibitors in MDP-stimulated cells, cell-based, uHTS, luminescence (AID 2001); format: functional; conditions: Homo sapiens
HEK293 [2] = experiment: NOD1 signaling inhibitors, primary screen, cell-based, luminescence, uHTS (AID 1578); format: functional; conditions: Homo sapiens
HEK293 [3] = experiment: cells; format: functional, cell-based; conditions: Homo sapiens
[4] = biological target: Nucleotide-binding oligomerization domain-containing protein 2 (Homo sapiens, UniProt Q9HC29); experiment: NOD2 signaling inhibitors, cell-based, luminescence, uHTS, HEK293 (AID 1566); format: functional
Sequence of Nucleotide-binding oligomerization domain-containing protein 2 (Q9HC29 whole entry, the tested form may be a part): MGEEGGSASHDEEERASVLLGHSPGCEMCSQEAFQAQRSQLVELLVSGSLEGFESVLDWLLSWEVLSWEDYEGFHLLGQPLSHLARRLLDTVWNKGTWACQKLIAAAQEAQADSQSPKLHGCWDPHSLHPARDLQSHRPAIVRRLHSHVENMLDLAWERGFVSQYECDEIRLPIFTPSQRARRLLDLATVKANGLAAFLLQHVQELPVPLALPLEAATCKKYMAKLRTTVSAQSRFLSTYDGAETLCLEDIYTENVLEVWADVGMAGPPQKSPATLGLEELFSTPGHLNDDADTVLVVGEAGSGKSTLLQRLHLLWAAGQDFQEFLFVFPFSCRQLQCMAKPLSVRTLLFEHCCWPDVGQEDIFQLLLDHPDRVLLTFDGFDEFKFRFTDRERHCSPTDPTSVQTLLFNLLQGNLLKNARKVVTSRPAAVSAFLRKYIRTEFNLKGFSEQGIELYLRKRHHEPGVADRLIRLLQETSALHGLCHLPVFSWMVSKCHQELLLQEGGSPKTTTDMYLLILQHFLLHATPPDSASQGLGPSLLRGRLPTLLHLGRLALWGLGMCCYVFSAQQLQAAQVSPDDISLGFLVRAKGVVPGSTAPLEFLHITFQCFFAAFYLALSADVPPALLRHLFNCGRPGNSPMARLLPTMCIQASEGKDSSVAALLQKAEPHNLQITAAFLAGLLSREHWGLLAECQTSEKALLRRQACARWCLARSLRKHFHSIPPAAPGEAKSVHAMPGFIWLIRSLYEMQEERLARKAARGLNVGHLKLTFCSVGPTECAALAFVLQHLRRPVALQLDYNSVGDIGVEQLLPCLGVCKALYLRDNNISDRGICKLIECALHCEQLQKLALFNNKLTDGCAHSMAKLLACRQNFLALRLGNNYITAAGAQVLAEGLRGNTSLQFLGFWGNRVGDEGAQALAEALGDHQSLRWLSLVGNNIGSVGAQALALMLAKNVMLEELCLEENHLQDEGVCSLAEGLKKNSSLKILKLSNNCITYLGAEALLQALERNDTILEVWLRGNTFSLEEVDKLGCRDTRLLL

HEK293 [5] = experiment: cells; format: functional, cell-based; conditions: Homo sapiens; remark: listed apart in the source
HEK293 [6] = experiment: cells; format: functional, cell-based; conditions: Homo sapiens; remark: listed apart in the source
[7] = biological target: Voltage-dependent T-type calcium channel subunit alpha-1H (Homo sapiens, UniProt O95180); format: functional;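 also: channel activity triggered by adding a high calcium stimulation buffer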
Sequence of Voltage-dependent T-type calcium channel subunit alpha-1H (O95180 whole entry): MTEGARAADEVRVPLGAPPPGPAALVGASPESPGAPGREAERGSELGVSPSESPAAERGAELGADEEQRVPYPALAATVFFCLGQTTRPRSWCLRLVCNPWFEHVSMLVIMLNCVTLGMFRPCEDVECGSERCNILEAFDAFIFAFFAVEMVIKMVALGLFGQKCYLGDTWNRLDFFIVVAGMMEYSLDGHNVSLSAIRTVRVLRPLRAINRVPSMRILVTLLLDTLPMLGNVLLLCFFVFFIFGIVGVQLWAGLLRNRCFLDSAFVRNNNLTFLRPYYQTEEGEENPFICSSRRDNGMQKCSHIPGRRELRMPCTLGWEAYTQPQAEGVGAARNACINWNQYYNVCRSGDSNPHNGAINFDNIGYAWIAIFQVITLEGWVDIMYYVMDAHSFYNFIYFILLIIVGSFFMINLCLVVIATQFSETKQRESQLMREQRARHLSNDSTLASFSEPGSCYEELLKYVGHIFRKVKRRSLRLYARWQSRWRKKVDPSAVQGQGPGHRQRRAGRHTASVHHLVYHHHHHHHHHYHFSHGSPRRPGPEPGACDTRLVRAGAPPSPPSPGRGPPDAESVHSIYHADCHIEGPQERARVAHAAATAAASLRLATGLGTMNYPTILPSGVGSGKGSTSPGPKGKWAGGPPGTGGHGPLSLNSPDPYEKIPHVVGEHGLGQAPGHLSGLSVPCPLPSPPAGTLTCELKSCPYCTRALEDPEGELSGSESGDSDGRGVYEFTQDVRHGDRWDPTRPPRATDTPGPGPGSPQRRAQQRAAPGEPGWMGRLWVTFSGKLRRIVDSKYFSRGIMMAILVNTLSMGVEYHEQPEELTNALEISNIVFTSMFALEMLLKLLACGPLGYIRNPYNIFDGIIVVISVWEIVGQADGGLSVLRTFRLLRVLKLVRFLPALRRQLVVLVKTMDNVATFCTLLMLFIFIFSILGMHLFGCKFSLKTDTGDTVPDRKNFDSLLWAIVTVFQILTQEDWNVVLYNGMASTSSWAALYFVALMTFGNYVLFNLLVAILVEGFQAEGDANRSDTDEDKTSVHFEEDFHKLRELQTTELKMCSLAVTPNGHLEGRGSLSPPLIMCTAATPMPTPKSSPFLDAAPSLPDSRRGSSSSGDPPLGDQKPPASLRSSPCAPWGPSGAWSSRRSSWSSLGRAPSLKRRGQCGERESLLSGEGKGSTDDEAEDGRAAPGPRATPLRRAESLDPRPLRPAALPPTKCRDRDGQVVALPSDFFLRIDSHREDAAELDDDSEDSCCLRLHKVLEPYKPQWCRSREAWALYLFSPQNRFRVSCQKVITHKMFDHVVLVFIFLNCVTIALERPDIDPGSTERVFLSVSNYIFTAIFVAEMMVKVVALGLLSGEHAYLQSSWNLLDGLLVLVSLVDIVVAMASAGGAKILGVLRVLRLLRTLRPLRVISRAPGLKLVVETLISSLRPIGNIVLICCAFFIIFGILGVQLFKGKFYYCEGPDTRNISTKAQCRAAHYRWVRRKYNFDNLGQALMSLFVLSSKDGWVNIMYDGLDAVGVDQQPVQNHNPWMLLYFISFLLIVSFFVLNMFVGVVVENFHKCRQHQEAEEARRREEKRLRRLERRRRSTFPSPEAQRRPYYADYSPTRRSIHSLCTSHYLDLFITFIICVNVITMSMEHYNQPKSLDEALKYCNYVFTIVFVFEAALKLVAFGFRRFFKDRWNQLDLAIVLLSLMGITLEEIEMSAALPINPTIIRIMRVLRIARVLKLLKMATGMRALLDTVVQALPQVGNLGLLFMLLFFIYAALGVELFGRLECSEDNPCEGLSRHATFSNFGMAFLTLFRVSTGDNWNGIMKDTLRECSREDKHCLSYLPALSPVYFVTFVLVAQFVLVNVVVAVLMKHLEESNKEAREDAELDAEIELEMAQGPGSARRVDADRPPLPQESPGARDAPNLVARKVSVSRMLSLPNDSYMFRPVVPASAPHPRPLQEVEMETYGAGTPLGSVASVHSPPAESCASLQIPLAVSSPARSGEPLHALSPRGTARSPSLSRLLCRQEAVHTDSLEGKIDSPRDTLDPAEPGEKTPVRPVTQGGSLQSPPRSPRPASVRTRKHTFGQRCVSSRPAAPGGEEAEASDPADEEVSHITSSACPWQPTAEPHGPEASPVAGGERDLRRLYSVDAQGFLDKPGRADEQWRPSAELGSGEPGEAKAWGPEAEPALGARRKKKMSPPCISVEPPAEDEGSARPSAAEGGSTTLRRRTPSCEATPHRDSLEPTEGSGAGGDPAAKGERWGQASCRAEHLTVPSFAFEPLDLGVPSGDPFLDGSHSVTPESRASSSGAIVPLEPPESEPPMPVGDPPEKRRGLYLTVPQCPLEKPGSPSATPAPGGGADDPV

[8] = A cytotoxicity screen of small molecule inhibitors of the PhoP region in Salmonella typhi identified in the primary screen. [Related pubchem assays: 1850, 1864, 1985 ]; format: functional
[9] = biological target: DNA dC->dU-editing enzyme APOBEC-3G (Homo sapiens, UniProt Q9HC16); experiment: Dose Response confirmation of small molecule APOBEC3G DNA Deaminase Inhibitors via a fluorescence-based single-stranded DNA deaminase assay. [Related pubchem assays (depositor defined):AID493012, AID493028]; format: functional
Sequence of DNA dC->dU-editing enzyme APOBEC-3G (Q9HC16 whole entry): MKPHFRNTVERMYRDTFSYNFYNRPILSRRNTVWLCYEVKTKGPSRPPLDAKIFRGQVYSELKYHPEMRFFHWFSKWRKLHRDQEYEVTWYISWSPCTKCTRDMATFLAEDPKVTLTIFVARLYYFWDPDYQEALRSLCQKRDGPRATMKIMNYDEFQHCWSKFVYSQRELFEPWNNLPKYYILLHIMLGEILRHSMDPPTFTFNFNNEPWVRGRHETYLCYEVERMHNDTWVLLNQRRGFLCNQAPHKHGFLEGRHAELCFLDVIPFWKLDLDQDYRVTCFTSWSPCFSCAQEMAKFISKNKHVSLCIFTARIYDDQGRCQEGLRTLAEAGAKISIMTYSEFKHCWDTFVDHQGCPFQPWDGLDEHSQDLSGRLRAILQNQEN

Leucine aminopeptidase = biological target: T1, Leucine aminopeptidase (Plasmodium falciparum 3D7, UniProt Q8IL11); experiment: P. falciparum M17LAP inhibitors, primary screen, biochemical, fluorogenic H-Leu-NHMec substrate, 1536-well (AID 1619); format: functional
T1 sequence (Q8IL11 whole entry): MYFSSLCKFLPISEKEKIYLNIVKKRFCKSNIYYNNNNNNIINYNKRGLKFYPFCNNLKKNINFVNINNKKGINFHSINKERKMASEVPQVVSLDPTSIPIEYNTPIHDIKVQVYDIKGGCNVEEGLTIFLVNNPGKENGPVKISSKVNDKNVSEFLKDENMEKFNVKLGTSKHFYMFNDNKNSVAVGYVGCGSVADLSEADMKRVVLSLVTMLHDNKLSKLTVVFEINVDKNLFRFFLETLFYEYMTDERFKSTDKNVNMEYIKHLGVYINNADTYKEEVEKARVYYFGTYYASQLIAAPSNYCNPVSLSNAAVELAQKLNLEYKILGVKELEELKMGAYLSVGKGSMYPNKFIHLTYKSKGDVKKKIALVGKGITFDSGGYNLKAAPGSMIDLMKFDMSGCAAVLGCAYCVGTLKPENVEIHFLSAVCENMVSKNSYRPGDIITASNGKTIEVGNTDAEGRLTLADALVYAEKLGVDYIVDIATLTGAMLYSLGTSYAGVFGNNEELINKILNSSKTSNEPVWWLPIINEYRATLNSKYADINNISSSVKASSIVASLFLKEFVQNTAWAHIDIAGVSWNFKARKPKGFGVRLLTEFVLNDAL

[10] = biological target: T2, Replicative DNA helicase DnaB (Mycobacterium tuberculosis, UniProt P9WMR3); experiment: DnaB intein splicing inhibitors, dose response, biochemical, cell-free fluorescence (AID 449749); format: functional
T2 sequence (P9WMR3 whole entry): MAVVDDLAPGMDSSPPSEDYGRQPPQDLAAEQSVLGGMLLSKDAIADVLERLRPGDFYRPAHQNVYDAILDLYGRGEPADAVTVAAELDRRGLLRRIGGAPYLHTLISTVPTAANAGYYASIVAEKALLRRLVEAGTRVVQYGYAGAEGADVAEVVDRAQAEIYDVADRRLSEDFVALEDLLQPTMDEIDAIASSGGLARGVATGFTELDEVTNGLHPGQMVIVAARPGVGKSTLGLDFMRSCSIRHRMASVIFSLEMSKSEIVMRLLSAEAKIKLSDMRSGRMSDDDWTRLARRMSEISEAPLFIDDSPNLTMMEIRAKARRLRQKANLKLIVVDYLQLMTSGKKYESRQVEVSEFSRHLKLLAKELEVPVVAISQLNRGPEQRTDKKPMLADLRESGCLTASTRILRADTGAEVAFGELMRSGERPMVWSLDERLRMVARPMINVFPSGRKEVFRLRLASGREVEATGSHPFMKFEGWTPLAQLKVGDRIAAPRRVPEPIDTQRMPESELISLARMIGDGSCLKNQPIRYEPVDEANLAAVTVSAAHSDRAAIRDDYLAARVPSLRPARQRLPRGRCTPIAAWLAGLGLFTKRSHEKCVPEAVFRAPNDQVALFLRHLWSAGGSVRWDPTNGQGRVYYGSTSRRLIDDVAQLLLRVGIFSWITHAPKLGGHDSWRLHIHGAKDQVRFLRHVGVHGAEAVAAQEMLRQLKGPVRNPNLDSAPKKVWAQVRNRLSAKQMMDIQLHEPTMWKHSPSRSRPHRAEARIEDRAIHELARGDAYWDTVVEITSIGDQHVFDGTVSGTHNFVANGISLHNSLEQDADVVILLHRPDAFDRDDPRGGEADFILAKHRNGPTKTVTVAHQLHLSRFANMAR

Protein RecA = biological target: T3, Protein RecA (Mycobacterium tuberculosis, UniProt P9WHJ3); experiment: Fluorescence Cell-Free Homogeneous Dose Retest to Identify Inhibitors of RecA-Intein Splicing Activity. [Related pubchem assays (depositor defined):AID2097, AID2223, AID489010, AID492950]; format: functional
T3 sequence (P9WHJ3 whole entry): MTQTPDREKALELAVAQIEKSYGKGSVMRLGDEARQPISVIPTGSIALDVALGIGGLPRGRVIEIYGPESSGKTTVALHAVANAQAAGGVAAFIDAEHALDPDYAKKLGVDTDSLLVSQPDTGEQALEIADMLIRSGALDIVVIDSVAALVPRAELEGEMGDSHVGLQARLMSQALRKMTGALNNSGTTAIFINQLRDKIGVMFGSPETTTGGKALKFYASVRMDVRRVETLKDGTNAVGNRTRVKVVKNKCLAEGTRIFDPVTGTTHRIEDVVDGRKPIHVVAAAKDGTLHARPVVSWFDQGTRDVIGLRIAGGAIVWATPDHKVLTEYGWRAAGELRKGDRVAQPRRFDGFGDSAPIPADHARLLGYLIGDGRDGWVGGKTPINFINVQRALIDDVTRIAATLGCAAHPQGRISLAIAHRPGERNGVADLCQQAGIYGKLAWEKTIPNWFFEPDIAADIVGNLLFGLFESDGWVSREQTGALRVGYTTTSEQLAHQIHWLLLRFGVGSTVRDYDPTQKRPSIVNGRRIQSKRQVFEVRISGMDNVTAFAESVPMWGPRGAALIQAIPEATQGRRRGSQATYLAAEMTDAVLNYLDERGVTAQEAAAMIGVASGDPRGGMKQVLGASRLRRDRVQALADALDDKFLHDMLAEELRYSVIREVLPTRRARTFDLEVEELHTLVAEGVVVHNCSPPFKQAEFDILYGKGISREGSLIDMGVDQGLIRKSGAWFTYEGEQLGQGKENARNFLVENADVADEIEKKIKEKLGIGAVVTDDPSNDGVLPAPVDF

Aminopeptidase N = biological target: T4, Aminopeptidase N (Plasmodium falciparum FcB1/Columbia, UniProt O96935); experiment: P. falciparum M1AAP inhibitors, biochemical, fluorogenic H-Leu-NHMec substrate, 1536-well (AID 1445); set-up: species or system Plasmodium falciparum 3D7, 3D7
T4 sequence (O96935 whole entry): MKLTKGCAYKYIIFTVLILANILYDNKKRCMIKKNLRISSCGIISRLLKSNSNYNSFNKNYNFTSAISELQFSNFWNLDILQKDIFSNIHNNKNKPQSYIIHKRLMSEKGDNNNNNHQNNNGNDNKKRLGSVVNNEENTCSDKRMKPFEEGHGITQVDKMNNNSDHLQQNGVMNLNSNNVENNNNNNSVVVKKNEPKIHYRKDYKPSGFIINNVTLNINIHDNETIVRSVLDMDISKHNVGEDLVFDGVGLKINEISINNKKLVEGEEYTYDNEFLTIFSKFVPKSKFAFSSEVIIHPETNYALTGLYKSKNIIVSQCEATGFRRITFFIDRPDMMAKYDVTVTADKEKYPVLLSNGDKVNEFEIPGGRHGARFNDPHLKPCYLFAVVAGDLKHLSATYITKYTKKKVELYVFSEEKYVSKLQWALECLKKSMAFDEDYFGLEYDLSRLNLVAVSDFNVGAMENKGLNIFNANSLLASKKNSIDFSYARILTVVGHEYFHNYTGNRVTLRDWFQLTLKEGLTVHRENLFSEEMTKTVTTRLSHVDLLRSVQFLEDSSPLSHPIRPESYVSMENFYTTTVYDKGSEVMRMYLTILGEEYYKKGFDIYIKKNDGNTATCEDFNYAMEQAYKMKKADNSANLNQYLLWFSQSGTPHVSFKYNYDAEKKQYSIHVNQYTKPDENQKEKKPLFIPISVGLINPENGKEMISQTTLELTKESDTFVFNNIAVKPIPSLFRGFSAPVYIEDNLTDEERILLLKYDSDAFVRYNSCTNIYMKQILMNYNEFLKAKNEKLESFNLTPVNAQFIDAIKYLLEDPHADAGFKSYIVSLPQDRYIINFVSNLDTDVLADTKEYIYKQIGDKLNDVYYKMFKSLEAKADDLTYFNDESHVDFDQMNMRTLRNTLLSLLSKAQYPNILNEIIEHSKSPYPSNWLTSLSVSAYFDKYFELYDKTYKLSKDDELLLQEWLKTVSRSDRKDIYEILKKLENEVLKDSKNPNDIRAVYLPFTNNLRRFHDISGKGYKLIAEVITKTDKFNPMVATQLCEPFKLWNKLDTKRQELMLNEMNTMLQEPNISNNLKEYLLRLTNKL

[11] = HeLa cell cytotoxicity, dose response, cytotoxicity control for MgcRacGAP inhibitor project (AID 624300); format: functional
CAAX prenyl protease 2 = biological target: T5, CAAX prenyl protease 2 (Saccharomyces cerevisiae S288c, UniProt Q03530); format: biochemical
T5 sequence (Q03530 whole entry): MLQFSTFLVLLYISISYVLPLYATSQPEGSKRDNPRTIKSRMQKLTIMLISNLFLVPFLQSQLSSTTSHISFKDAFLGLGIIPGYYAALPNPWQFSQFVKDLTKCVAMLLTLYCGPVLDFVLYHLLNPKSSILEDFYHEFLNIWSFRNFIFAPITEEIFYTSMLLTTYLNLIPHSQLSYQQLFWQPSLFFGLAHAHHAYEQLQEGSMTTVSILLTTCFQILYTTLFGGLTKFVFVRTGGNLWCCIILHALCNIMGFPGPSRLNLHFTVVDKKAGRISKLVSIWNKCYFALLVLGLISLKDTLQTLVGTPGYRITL

[12] = inhibitors of intracellular T. cruzi replication, confirmation, NIH3T3 host cells, beta-gal luminescence (AID 2044); format: functional, cell-based;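 also: intracellular parasites grown in NIH/3T3 mouse fibroblasts as host cells; luminescent beta-galactosidase reporter signal from transgenic T. cruzi replicating inside host cells; inhibitors lower the luminescence signal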
[13] = cytotoxicity toward NIH3T3 fibroblasts, dose response, counter-screen, cell-based, ATP luminescence, mouse fibroblasts (AID 2010); format: functional;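 also: cells exposed to compound for about 90 hours before reading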
[14] = biological target: T6, Rac GTPase-activating protein 1 (Homo sapiens, UniProt Q9H0H5); experiment: MgcRacGAP GTPase-activating activity inhibitors, confirmation, biochemical, ADP Hunter fluorescence, primary and confirmatory (AID 624330); format: functional
T6 sequence (Q9H0H5 whole entry): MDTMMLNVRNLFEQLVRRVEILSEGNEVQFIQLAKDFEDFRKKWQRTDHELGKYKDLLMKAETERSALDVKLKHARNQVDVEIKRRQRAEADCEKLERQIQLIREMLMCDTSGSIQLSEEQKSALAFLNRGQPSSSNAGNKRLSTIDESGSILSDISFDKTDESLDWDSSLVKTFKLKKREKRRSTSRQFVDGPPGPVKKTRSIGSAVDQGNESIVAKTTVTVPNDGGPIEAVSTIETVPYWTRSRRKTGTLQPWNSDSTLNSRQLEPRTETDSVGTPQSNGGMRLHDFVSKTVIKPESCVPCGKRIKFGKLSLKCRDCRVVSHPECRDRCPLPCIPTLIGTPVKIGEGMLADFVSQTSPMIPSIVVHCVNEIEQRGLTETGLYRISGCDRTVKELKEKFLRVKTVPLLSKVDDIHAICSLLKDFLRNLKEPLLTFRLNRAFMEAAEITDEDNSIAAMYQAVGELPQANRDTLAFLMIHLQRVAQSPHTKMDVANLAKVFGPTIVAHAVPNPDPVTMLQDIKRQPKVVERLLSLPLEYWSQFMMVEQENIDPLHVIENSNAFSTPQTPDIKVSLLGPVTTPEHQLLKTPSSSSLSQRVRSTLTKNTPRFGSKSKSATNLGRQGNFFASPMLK

Sequence of Trypsin (P00761 whole entry): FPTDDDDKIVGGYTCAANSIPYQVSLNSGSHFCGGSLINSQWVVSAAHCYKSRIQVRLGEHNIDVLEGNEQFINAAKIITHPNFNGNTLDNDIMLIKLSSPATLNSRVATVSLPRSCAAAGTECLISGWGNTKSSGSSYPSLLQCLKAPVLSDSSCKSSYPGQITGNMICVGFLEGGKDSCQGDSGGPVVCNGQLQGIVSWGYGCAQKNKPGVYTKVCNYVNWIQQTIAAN

COCCCn1c(N)c(C(=O)NCc2ccco2)c2nc3ccccc3nc21
AC50 (Trypsin): 10.3 µM (active)

COc1ccc(-c2c[nH]nc2-c2ccc(OCc3ccccc3F)cc2O)cc1OC
IC50 (HEK293 [1]): 7.5 µM (active)
EC50 (HEK293 [2]): 9.16 µM (active)
IC50 (HEK293 [3]): 6.09 µM (active)
EC50 [4]: > 20 µM (inactive)
IC50 (HEK293 [5]): 11.7 µM (active)
IC50 (HEK293 [6]): > 20 µM (inactive)

CCC1Oc2ccc(C)cc2N(CC(=O)NCC2COc3ccccc3O2)C1=O (stereo not drawn)
EC50 [7]: 5.63 µM (active)
EC50 [8]: > 50 µM (active)

O=c1oc2ccccc2nc1/C=C(\O)c1ccccc1
EC50 [8]: > 50 µM (active)

O=C(O)c1ccc(-n2c(-c3ccc(Br)cc3)n[nH]c2=S)cc1
IC50 [9]: 9.1 µM (active)

Cc1ccc(SCc2n[nH]c3c2C2(CCSCC2)C(C#N)=C(N)O3)cc1
IC50 (Leucine aminopeptidase): 91 µM (active)
AC50 [10]: 2.94 µM (active)
EC50 (Protein RecA): 2.42 µM (active)

CCCN(CCC)CC(=O)Nc1cccc2c1OCO2
EC50 [8]: > 50 µM (active)

COc1ccc(S(=O)(=O)NC2=NC(=O)/C(=C\c3cc(OC)c(OC)cc3[N+](=O)[O-])S2)cc1
IC50 (Aminopeptidase N): 22.4 µM (active)

COc1ccc(C2CC(c3ccc4ccccc4c3)=NN2C(=O)CNC2CCCCC2)cc1 (stereo not drawn)
CC50 [11]: 39 µM (active)
AC50 (Trypsin): > 100 µM (inactive)
AC50 (CAAX prenyl protease 2): 9.16 µM (active)
EC50 [12]: 2.76 µM (active)
EC50 [13]: > 30 µM (not active)
IC50 [14]: 110 µM (active)

O=C(Nc1cc(S(=O)(=O)N2CCOCC2)ccc1N1CCCCC1)c1ccc(Cl)cc1
IC50 [9]: 50.5 µM (active)
